# Measurements as given in patent publication US6642392B1 (priority 1997, dated 2003).
# Where two headings read alike, the source gives them in different places.
# How the values were obtained:
# Type in all cases: in vivo
# [1] = system: Eiysiphe graminis f. sp. tritici; assay: Test A: wheat powdery mildew, preventive spray on wheat seedlings; conditions: for Test A disease control rating: wheat powdery mildew
# Procedure, shortened: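 Preventive test: seedlings inoculated with powdery mildew spores one day after run-off spraying of a suspension. Ratings after 7 days in a 20° C growth chamber express percent disease control versus controls.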
# [2] = system: Puccinia recondita; assay: Test B: wheat leaf rust, preventive spray on wheat seedlings; conditions: for Test B disease control rating: wheat leaf rust
# Procedure, shortened: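 Preventive test: P. recondita spores were applied one day after a run-off spray of compound suspension on wheat seedlings. Plants had 24 h at 20 °C in saturated air plus 6 days in a 20 °C growth chamber. Scoring is % disease control (100 = full) relative to controls.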
# [3] = system: Botrytis cinerea; assay: Test E: gray mold, preventive spray on cucumber seedlings; conditions: for Test E disease control rating: gray mold on cucumber
# Procedure, shortened: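 Preventive spray on cucumber seedlings used a suspension (3% acetone, 250 ppm Trem 014), applied to run-off one day before inoculation with Botrytis cinerea spores. Plants were held 48 h at 20° C in saturated air, then 5 days at 20° C. Percent disease control was scored relative to untreated plants.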
# [4] = system: Phytophthora infestans; conditions: for Test D disease control rating: tomato late blight
# [5] = system: Pyricularia oryzae; conditions: for Test C disease control rating: rice blast
# [6] = 100 = 100% disease control, 0 = no control relative to controls, unmarked entries (standard test concentration)
# [7] = 100 = 100% disease control, 0 = no control, unmarked entries (standard test concentration)
# [8] = wheat seedlings sprayed to run-off, inoculated the following day, rating relative to controls, unmarked compounds (standard test rate)
SMILES,"Test A disease control rating [1, 6] [%]","Test B disease control rating [2, 7] [%]","Test E disease control rating [3, 7] [%]","Test D disease control rating [4, 7] [%]","Test C disease control rating [5, 7] [%]",further results
CCC1(C(=O)NCC=Cc2ccccc2)C(C)C1(Cl)Cl (stereo not drawn) [compound 156],,,,,,Test A disease control rating ([1]; tested at 40 ppm): 0%; Test B disease control rating ([2]; tested at 40 ppm): 0%; Test E disease control rating ([3]; tested at 40 ppm): 0%; Test D disease control rating ([4]; tested at 40 ppm): 0%; Test C disease control rating ([5]; tested at 40 ppm): 0%
CCC1(C(=O)NC(C)COc2ccc(Cl)cc2F)C(C)C1(Cl)Cl (stereo not drawn) [compound 120],,,,,,Test A disease control rating ([1]; tested at 40 ppm): 29%; Test B disease control rating ([2]; tested at 40 ppm): 0%; Test E disease control rating ([3]; tested at 40 ppm): 0%; Test D disease control rating ([4]; tested at 40 ppm): 19%; Test C disease control rating ([5]; tested at 40 ppm): 52%
"C[C@H](COc1cccc(F)c1)NC(=O)C(C#N)C(C)(C)C (single isomer, unassigned) [3d]",92,0,0,99,100,
"C=CC(C)(C)C(C#N)C(=O)N[C@H](C)COc1cc(F)ccc1Cl (single isomer, unassigned) [192b]",0,0,0,0,100,
CC(COc1cccc(F)c1C#N)NC(=O)C(C#N)C(C)(C)C (mixture of isomers) [compound 39],0,0,0,2,86,
"C[C@H](COc1cc(F)ccc1F)NC(=O)C(C#N)C(C)(C)C (single isomer, unassigned) [28a]",38,28,0,68,100,
Cc1cccc(C#N)c1OCC(C)NC(=O)C(C#N)C(C)(C)C (mixture of isomers) [compound 209],0,0,0,0,86,
CCC1(C(=O)NC(C)COc2ccccc2CC#N)C(C)C1(Cl)Cl (stereo not drawn) [compound 103],0,26,0,0,53,
CCC1(C(=O)NC(C)COc2cc(F)ccc2F)C(C)C1(Cl)Cl (stereo not drawn) [compound 107],,,,,,Test A disease control rating ([1]; tested at 40 ppm): 71%; Test B disease control rating ([2]; tested at 40 ppm): 0%; Test E disease control rating ([3]; tested at 40 ppm): 0%; Test D disease control rating ([4]; tested at 40 ppm): 0%; Test C disease control rating ([5]; tested at 40 ppm): 100%
"C[C@H](COc1cc(F)ccc1Cl)NC(=O)C(C#N)C(C)(C)C (single isomer, unassigned) [191a]",0,0,85,25,100,
C=CCc1ccccc1OCC(C)NC(=O)C1(C)CC1(Cl)Cl (mixture of isomers) [compound 314],,,,,,"Test A disease control rating (100 = 100% disease control, 0 = no disease control) [1, 8]: 0%; Test B disease control rating (100 = 100% disease control, 0 = no disease control) [2, 8]: 0%; Test E disease control rating (100 = 100% disease control, 0 = no disease control) ([3]; cucumber seedlings sprayed to run-off, inoculated the following day, rating relative to controls, unmarked compounds (standard test rate)): 0%; Test D disease control rating (100 = 100% disease control, 0 = no disease control) ([4]; tomato seedlings sprayed to run-off, inoculated the following day, rating relative to controls, unmarked compounds (standard test rate)): 0%; Test C disease control rating (100 = 100% disease control, 0 = no disease control) ([5]; rice seedlings sprayed to run-off, inoculated the following day, rating relative to controls, unmarked compounds (standard test rate)): 72%"
"Cc1ccc(OC[C@@H](C)NC(=O)C(C#N)C(C)(C)C)c(Cl)c1 (single isomer, unassigned) [14b]",61,0,0,23,86,
CC(COc1cccc(Cl)c1)NC(=O)C(C#N)C(C)(C)C (mixture of isomers) [6b],38,68,0,4,53,
CCC1(C(=O)NC(C)COc2ccc(Cl)cc2Cl)C(C)C1(Cl)Cl (stereo not drawn) [compound 112],,,,,,Test A disease control rating ([1]; tested at 40 ppm): 71%; Test B disease control rating ([2]; tested at 40 ppm): 0%; Test E disease control rating ([3]; tested at 40 ppm): 0%; Test D disease control rating ([4]; tested at 40 ppm): 0%; Test C disease control rating ([5]; tested at 40 ppm): 0%
CC(COc1cccc(F)c1)NC(=O)C(C#N)C(C)(C)C (mixture of isomers) [3a],85,0,55,0,94,
"C[C@H](COc1ccc(F)cc1Br)NC(=O)C(C#N)C(C)(C)C (single isomer, unassigned) [165a]",86,0,86,23,74,
CC(COc1c(C#N)cccc1C(F)F)NC(=O)C(C#N)C(C)(C)C (mixture of isomers) [compound 206],0,0,0,0,74,
"C[C@H](COc1cc(Cl)ccc1Cl)NC(=O)C(C#N)C(C)(C)C (single isomer, unassigned) [33b]",0,67,0,80,100,
CC(COc1c(F)cccc1C#N)NC(=O)C(C#N)C(C)(C)C (mixture of isomers) [compound 203],0,28,0,0,91,
CCC1(C(=O)NC(C)COc2ccc(F)cc2Br)C(C)C1(Cl)Cl (stereo not drawn) [compound 124],,,,,,Test A disease control rating ([1]; tested at 40 ppm): 83%; Test B disease control rating ([2]; tested at 40 ppm): 0%; Test E disease control rating ([3]; tested at 40 ppm): 0%; Test D disease control rating ([4]; tested at 40 ppm): 0%; Test C disease control rating ([5]; tested at 40 ppm): 0%
"CC(COc1cccc(Cl)c1)NC(=O)C(C#N)C(C)(C)C (single isomer, unassigned) [6a]",0,0,0,0,74,
CCC1(C(=O)NCCOc2ccccc2)C(C)C1(Cl)Cl (stereo not drawn) [compound 153],92,64,0,92,94,
CC(C)(C)C(C#N)C(=O)NC/C=C/c1cccc(Cl)c1 (racemic) [compound 180],61,0,0,76,74,
"C[C@H](COc1cc(F)cc(F)c1Cl)NC(=O)C(C#N)C(C)(C)C (single isomer, unassigned) [169b]",0,0,0,0,97,
